# Reference: patent publication US20130273096A1, “Therapeutic Sulfated Polysaccharides, Compositions Thereof, and Methods for Treating Patients” (priority 2011, published 2013)
# Experiments:
# endothelial cells = test: Heparan sulfate (HS) stimulus experiment; type: cell-based; settings: vs control; FIG. 10
# Procedure: A heparin sulfate (HS) stimulus experiment was performed as known in the art, using the four RS isoforms described herein. […] While the results shown here are limited to the RS isoforms studied, the type of polysaccharides to which this applies can be expanded to other classes of compounds that likely have similar effects, such as PUFAs, non-sulfated PS, other polymers, and the like. These RS (and other similar acting substances found in nature) can be used for in vivo HS and GAG production instead of administering HS or other GAGS for therapeutic effect.
# endothelial cells (EC) = test: Disaccharide analysis of heparan sulfate synthesized by endothelial cells; type: cell-based; settings: EC exposed to RS vs control cell fraction; FIG. 4
# Procedure: Purified heparin sulfate (HS) from the endothelial cells (EC) exposed or not exposed to RS #2 were incubated with a mixture of heparin lyases (heparinase I and II, 2.5 mlU each, available from Sigma) and the disaccharides produced by the enzymatic action were separated on a Phenosphere SAX column (Phenomenex, Torrance, Calif., USA) 150×4.6 mm using a NaCl gradient of 0-1 M in 30 min with a flux of 1 mL/min. Individual fractions (0.5 mL) were collected and counted using a micro-beta counter. […] The abbreviations used in the figure are: GlcNS(6S)=2-deoxy-6-O-sulfo-2-(sulfoamino)-α-D-glucopyranoside; GlcA=β-D-glucopyranuronosyl; GlcNS(3S,6S)=2-deoxy-3,6-di-O-sulfo-2-(sulfoamino)-α-D-glucopyranosyl; IdoA(2S)=2-O-sulfo-α-L-idopyranuronosyl; and, GlcNS(6S)OMe=methyl-O-2-deoxy-6-O-sulfo-2-(sulfoamino)-α-D-glucopyranoside.
# As for the heparin stimulus, the HS produced by these cells have more of heparin sequences [-4) IdoA2S(1-4)GlcNS,6S] (heparin's basic structure). […] Counting from the left, the RS-induced heparans are chains of disaccharide pairs like sugar groups number 4-5 hooked together. Additionally, the major fraction of stimulated heparan sulfate produced are tri-sulfated discaccharides (Iodo2S-GlcNS,6S), typical of the major sequence in heparin.
# [1] = system: human coronary artery endothelial cells (HCAEC); test: LDL permeability of HCAEC monolayers; type: cell-based; settings: 12.5 to 12004/mL, 24 hrs to 5 day, FIGS. 6 and 7
# Procedure: To test whether any of the RS isoforms could inhibit apoptosisn in human coronary artery endothelial cells (HCAEC), the HCAEC (human coronary artery endothelial cell) monolayers were incubated with each of two isoforms, RS#1 or RS#2, at concentrations ranging from 12.5 to 12004/mL for a period of time ranging from 24 hrs to 5 day, before the permeability of LDL (low density lipoprotein) was measured. In addition, some monolayers were induced to undergo apoptosis with TNF-α/CHX in the presence or absence of RS#1 or RS#2 and the permeability of LDL was measured. As shown in the figure, Dil means 11′-dioctadecyl-3,3-3′,3′-tetramethylindo-carbocyanide perchlorate. […] When the monolayers were induced to undergo apoptosis the permeability increased by ˜2-3-fold.
# HCAEC monolayers [2] = test: Water flux through HCAEC monolayers; type: cell-based, human; settings: FIG. 8
# HCAEC monolayers [3] = test: Heparan sulfate immunostaining of HCAEC monolayers; type: cell-based, human; settings: 1004/mL for 24 hrs; confocal microscope; FIG. 9
# Procedure: HCAEC monolayers were incubated with RS#1 at 1004/mL for 24 hrs and immunostaining for heparan sulfate was performed. The monolayers were then imaged using a laser scanning confocal microscope. One control and one RS#1-treated monolayers were stained and four representative fields from each case were imaged. In control monolayers, heparan sulfate immunostaining seemed to be concentrated on the cell-cell junction area (FIG. 9A).
Substance,cellular HS content (cellular fraction of heparans) (endothelial cells),"heparin sequences composed of the tri-sulfated disaccharide (ΔU2S-GlcNS,6S) in HS synthesized by EC (endothelial cells (EC))",reduction of LDL permeability of control monolayers [1] [fold],decrease of water flux through HCAEC monolayers (HCAEC monolayers [2]) [%],coverage of heparan sulfate on HCAEC monolayers (immunostaining) (HCAEC monolayers [3])
rhamnan sulfate [RS #3],no change,,,,
rhamnan sulfate [RS #2],,significant increase,5,~20,
L-arginine (L-Arg) salt of rhamnan sulfate [RS #1],,,5,~50,increased the coverage
